Data as given in patent US20210038607A1, “OXADIAZOLYLTHIOPHENE DERIVATIVES USEFUL AS HISTONE DEACETYLASE INHIBITORS” (Karus Therapeutics Limited, priority 2018, published 2021).

Legend:
[1] = target: T1, Complex of human HDAC3 and human NCOR2 (Homo sapiens, UniProt O15379); test: HDAC3 biochemical assay, AMC-labeled peptide substrate; conditions: read-out: HDAC Isoform IC50 (nM) 3
T1 construct: full length with C-terminal His tag, MW=49.7 kDa; His (C); host or cells: baculovirus expression system (co-expressed)
T1 sequence (O15379 whole entry, canonical isoform): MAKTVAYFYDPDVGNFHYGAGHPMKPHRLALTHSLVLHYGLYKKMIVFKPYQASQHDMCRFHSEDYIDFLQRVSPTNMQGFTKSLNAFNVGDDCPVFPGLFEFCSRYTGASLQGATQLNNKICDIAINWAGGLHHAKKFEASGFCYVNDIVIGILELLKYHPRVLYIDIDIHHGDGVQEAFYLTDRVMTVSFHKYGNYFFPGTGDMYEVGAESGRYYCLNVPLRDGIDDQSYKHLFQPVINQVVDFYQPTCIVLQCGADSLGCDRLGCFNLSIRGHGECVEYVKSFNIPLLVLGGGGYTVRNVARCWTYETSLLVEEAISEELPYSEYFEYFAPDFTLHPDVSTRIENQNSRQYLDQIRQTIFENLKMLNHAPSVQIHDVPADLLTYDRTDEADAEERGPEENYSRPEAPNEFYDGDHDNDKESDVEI
T1 sequence (Q9Y618 395-489 partner limits assumed): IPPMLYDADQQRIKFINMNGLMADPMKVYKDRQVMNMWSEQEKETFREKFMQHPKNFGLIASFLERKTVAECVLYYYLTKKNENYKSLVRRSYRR
Experimental: (§1) Activity against all zinc-dependent HDACs 1 to 11 was assessed by using an acetylated AMC-labeled peptide substrate. The substrate RHKK(Ac)AMC was used for HDAC1, HDAC2, HDAC3, HDAC6 and HDAC10; the substrate used for HDAC8 was RHK(Ac)K(Ac)AMC. Activity against the class IIa HDACs (HDAC4, 5, 7, 9) and HDAC11 was determined using a class IIa-specific substrate, BOC-Lys(trifluoroacetyl)-AMC (“Trifluoroacetyl Lysine”; see Lahm et al, 2007, PNAS, 104, 17335-17340). All assays were based on the AMC-labeled substrate and developer combination.
(§2) The protocol involved a two-step reaction: first, the substrate with the acetylated lysine side chain is incubated with a sample containing HDAC activity, to produce the deacetylated products, which are then digested in the second step by the addition of developer to produce the fluorescent signal proportional to the amount of deacetylated substrates.
Complex of human HDAC3 (GenBank Accession No. NM_003883), full length with C-terminal His tag, MW=49.7 kDa, and human NCOR2 (amino acid 395-489) (GenBank Accession No. NM_006312), N-terminal GST tag, MW=37.6 kDa, co-expressed in baculovirus expression system.
(§3) Assay Buffer: 50 mM Tris-HCl, pH8.0, 137 mM NaCl, 2.7 mM KCl, 1 mM MgC2. Before use, 1 mg/mL BSA and DMSO are added.
HDAC3: 0.1 ng/ul HDAC3 and 50 μM HDAC substrate are in the reaction buffer with 1% DMSO final. Incubate for 1 hour at 30° C.
(§4) Stage 1: Deacetylation of substrate by incubation of HDAC enzymes with compounds
(§5) Stage 2: Development by addition of Developer to digest the deacetylated substrate, and generate the fluorescent colour; Detection: 360/460 Ex/Em

Recombinant human HDAC6 = target: T2, Recombinant human HDAC6 (Homo sapiens, UniProt Q9UBN7); test: HDAC6 biochemical assay, AMC-labeled peptide substrate; conditions: HDAC6; read-out: HDAC Isoform IC50 (nM) 6
T2 construct: full length, MW=159 kDa; GST (N); host or cells: Sf9 insect cells (baculovirus)
T2 sequence (Q9UBN7 1-1215): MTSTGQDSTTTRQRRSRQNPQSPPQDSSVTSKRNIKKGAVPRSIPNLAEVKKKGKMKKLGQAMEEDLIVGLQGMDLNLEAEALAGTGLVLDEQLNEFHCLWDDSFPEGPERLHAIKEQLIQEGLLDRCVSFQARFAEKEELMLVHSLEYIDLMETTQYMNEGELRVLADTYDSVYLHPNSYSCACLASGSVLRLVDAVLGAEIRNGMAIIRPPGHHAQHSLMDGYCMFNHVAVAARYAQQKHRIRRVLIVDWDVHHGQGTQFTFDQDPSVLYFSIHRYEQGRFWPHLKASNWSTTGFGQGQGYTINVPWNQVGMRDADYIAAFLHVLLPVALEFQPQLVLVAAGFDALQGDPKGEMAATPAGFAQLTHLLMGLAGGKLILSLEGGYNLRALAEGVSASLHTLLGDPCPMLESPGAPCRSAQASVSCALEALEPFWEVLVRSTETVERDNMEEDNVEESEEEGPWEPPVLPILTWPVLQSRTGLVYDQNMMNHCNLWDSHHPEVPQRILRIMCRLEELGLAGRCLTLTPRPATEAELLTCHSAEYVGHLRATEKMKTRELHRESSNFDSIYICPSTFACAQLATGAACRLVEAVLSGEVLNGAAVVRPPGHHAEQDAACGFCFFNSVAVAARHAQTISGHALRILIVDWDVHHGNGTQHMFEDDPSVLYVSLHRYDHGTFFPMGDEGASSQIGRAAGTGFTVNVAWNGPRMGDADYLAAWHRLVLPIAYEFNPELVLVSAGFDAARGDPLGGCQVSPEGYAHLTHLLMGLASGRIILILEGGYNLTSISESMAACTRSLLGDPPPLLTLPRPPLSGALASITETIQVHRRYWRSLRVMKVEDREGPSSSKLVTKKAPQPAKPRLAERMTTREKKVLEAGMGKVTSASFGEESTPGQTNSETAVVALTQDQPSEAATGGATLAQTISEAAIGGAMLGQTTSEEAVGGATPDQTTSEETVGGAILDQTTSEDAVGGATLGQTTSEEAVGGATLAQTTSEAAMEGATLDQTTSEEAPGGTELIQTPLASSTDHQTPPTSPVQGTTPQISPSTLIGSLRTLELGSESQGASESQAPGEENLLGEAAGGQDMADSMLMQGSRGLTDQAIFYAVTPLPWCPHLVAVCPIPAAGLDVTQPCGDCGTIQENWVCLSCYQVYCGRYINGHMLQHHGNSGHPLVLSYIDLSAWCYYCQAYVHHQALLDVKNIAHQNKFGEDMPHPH
Outline: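 Two-step fluorogenic read-out: enzyme deacetylates 50 μM RHKK(Ac)AMC for 1 h at 30° C in pH 8.0 Tris buffer with BSA and 1% DMSO, then developer cleavage gives signal at Ex 360/Em 460. Enzyme: 0.3 ng/ul recombinant full-length human HDAC6, GST-tagged, Sf9-expressed.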

Human HDAC11 = target: T3, Human HDAC11 (Homo sapiens, UniProt Q96DB2); test: HDAC11 biochemical assay, class IIa-specific substrate; conditions: read-out: HDAC Isoform IC50 (nM) 11
T3 construct: Human HDAC11 (full length); His (N); host or cells: baculovirus expression system
T3 sequence (Q96DB2 1-347): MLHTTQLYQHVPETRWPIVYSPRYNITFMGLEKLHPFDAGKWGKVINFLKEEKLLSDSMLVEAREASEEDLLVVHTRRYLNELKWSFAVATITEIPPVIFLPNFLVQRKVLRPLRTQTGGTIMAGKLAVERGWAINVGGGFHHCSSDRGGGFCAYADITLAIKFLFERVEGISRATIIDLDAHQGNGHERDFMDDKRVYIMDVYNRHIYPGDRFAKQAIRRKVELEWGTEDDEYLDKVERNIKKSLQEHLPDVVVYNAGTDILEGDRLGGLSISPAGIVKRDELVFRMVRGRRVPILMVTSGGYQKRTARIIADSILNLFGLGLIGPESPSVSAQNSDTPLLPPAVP
Experimental: as §1, §2
Human HDAC11 (full length) (GenBank Accession No. NM_024827) with N-terminal His tag, MW=42.9 kDa, expressed in baculovirus expression system.
as §3
HDAC11: 5 ng/ul HDAC11 and 50 μMHDAC substrate are in the reaction buffer with 1% DMSO final. Incubate for 30 minutes at 30° C.
as §4, §5

| Compound | IC50 [1] [nM] | IC50 (Recombinant human HDAC6) [nM] | IC50 (Human HDAC11) [nM] |
| --- | --- | --- | --- |
| CC(F)(F)c1cnnc(N(Cc2ccc(-c3noc(C(F)(F)F)n3)s2)c2cnccn2)c1 [Example GU, 5-(1,1-Difluoroethyl)-N-(pyrazin-2-yl)-N-({5-[5-(trifluoromethyl)-1,2,4-oxadiazol-3-yl]thiophen-2-yl}methyl)pyridazin-3-amine] | > 10000 | ≤ 500 | > 10000 |
| COc1cnc(N(Cc2ccc(-c3noc(C(F)(F)F)n3)s2)c2cnccn2)cn1 [Example BI, 5-Methoxy-N-(pyrazin-2-yl)-N-({5-[5-(trifluoromethyl)-1,2,4-oxadiazol-3-yl]thiophen-2-yl}methyl)pyrazin-2-amine] | > 10000 | ≤ 1000 | > 10000 |
| O=C(O)c1cnnc(N(Cc2ccc(-c3noc(C(F)(F)F)n3)s2)c2cc(C(F)(F)F)cnn2)c1 [Example ES, 6-[({5-[5-(Trifluoromethyl)-1,2,4-oxadiazol-3-yl]thiophen-2-yl}methyl)[5-(trifluoromethyl)pyridazin-3-yl]amino]pyridazine-4-carboxylicacid] | > 10000 | ≤ 500 | > 10000 |
| CN(C)C1CN(C(=O)c2cnnc(N(Cc3ccc(-c4noc(C(F)(F)F)n4)s3)c3cnccn3)c2)C1 [Example FX, 5-[3-(Dimethylamino)azetidine-1-carbonyl]-N-(pyrazin-2-yl)-N-({5-[5-(trifluoromethyl)-1,2,4-oxadiazol-3-yl]thiophen-2-yl}methyl)pyridazin-3-amine] | > 10000 | ≤ 500 | > 10000 |
| FC(F)(F)c1cncc(N(Cc2ccc(-c3noc(C(F)(F)F)n3)s2)c2cnccn2)n1 [Example BR, N-(Pyrazin-2-yl)-6-(trifluoromethyl)-N-({5-[5-(trifluoromethyl)-1,2,4-oxadiazol-3-yl]thiophen-2-yl}methyl)pyrazin-2-amine] | > 10000 | ≤ 10000 | > 10000 |

The next lines start with the values.

| IC50 [1] [nM] | IC50 (Recombinant human HDAC6) [nM] | IC50 (Human HDAC11) [nM] | Compound |
| --- | --- | --- | --- |
| > 10000 | ≤ 500 | > 10000 | Cc1cnc(N(Cc2ccc(-c3noc(C(F)(F)F)n3)s2)c2cnccn2)cn1 [Example BH, 5-Methyl-N-(pyrazin-2-yl)-N-({5-[5-(trifluoromethyl)-1,2,4-oxadiazol-3-yl]thiophen-2-yl}methyl)pyrazin-2-amine] |
| ≤ 10000 | ≤ 500 | > 10000 | NC(=O)c1cnnc(N(Cc2ccc(-c3noc(C(F)(F)F)n3)s2)c2cnccn2)c1 [Example DX, 6-[(Pyrazin-2-yl)({5-[5-(trifluoromethyl)-1,2,4-oxadiazol-3-yl]thiophen-2-yl}methyl)amino]pyridazine-4-carboxamide] |
| > 10000 | ≤ 10000 | > 10000 | O=C(O)c1ccc(N(Cc2sc(-c3noc(C(F)(F)F)n3)cc2F)c2cnccn2)nn1 [Example EZ, 6-[({3-Fluoro-5-[5-(trifluoromethyl)-1,2,4-oxadiazol-3-yl]thiophen-2-yl}methyl)(pyrazin-2-yl)amino]pyridazine-3-carboxylic acid] |
| ≤ 10000 | ≤ 500 | > 10000 | O=C(c1cnnc(N(Cc2ccc(-c3noc(C(F)(F)F)n3)s2)c2cnccn2)c1)N1CC(O)(C(F)(F)F)C1 [Example GD, 1-{6-[(Pyrazin-2-yl)({5-[5-(trifluoromethyl)-1,2,4-oxadiazol-3-yl]thiophen-2-yl}methyl)amino]pyridazine-4-carbonyl}-3-(trifluoromethyl)azetidin-3-ol] |
| ≤ 10000 | ≤ 500 | > 10000 | O=C(c1ccc(N(Cc2ccc(-c3noc(C(F)(F)F)n3)s2)c2cnccn2)nn1)N1C[C@@H]2C[C@H]1C[S@@+]2[O-] [Example FR, (1S,2R,4S)-5-{6-[(Pyrazin-2-yl)({5-[5-(trifluoromethyl)-1,2,4-oxadiazol-3-yl]thiophen-2-yl}methyl)amino]pyridazine-3-carbonyl}-2-thia-5-azabicyclo[2.2.1]heptan-2-ium-2-olate] |
